Our source for the TGI and GI50 values is PubChem BioAssay (NCI).

Values joined by “and” are separate entries in the source; they are usually repeats but may differ in a detail not shown here. Equal values may be shown once.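 Grown in 96-well plates, cells were treated for 48 hours with each compound at five concentrations. Insufficient inhibition: endpoint recorded as highest concentration tested. GI50: concentration for 50% inhibition of growth. TGI marks complete inhibition of growth.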 Where a SMILES comes first, the peptide text is derived from it. The star is where a group is joined. Cbz = O=C(OCc1ccccc1)*

Assay in all cases: growth of human tumour cells (NCI), 48 h
The test system of assay [1] is PC-3 prostate.
Assay [2] deals with HS 578T breast.
In assay [3] the test system is MOLT-4 leukemia.
In assay [4] the test system is SK-MEL-5 melanoma.
Assay [5] deals with NCI-H226 lung.
For assay [6], the system named is SNB-75 CNS.
In assay [7] the test system is NCI-H522 lung.
Assay [8] relates to M14 melanoma.

Regarding `COP(=O)(OC)[C@@](O)(c1ccccc1)[C@@H](O)[C@H](O)c1ccccc1`, the TGI in assay [1], in assay [2], in assay [3], in assay [4], in assay [5] and in assay [6] was > 100 µM throughout. Also, the TGI in assay [7] and in assay [8] was > 100 µM throughout.

For `C#CCOC(=O)C=[N+]=[N-]`, the TGI in assay [1], in assay [3], in assay [5] and in assay [8] was > 10 µM throughout.

In the case of `Cc1ccc(N=NC(=Nc2ccc(F)cc2)c2ccc(N(CCC#N)CCC#N)cc2)cc1`, the TGI in assay [1], in assay [2], in assay [3], in assay [4], in assay [5] and in assay [6] was > 100 µM in each case. The values for the TGI in assay [7] and in assay [8] were 63.7 µM and > 100 µM, respectively.

Consider `CCOC(=O)c1nc(SC)sc1NC(=O)c1ccc(OC)cc1`, for which the TGI in assay [1], in assay [2], in assay [3], in assay [4], in assay [5] and in assay [7] was > 100 µM each time. Further, the TGI in assay [8] was > 100 µM.

`CCOC(=O)c1nc2ccccc2nc1Nc1cc(OC)c(OC)c(OC)c1`: the TGI in assay [2], in assay [3], in assay [4], in assay [6], in assay [7] and in assay [8] was > 100 µM in each case.

For `C[C@]12C(=O)OC[C@H](c3ccccc3)N1C(=O)N(Cc1ccccc1)[C@@H]2CO`, the TGI in assay [1], in assay [2], in assay [3], in assay [4], in assay [5] and in assay [6] was > 100 µM each time. Also, the TGI in assay [8] was > 100 µM.

Take `Cc1cc2c3c(c1)S(=O)(=O)c1cc(Cl)ccc1N3CCC2`: the TGI in assay [1], in assay [2], in assay [3], in assay [4], in assay [5] and in assay [6] was > 100 µM throughout. Further, in assay [8], the TGI was > 100 µM.

With `CCCCOC(=O)Nc1ccc(S(=O)(=O)Nc2c(Cl)cccc2Cl)cc1`, the TGI is > 100 µM in assay [1]; > 100 µM in assay [2]; 88.4 µM in assay [3]; 28 µM in assay [4]; > 100 µM in assay [7]; > 100 µM in assay [8].

`CCOC(=O)CCC(NC(=O)C(CC(=O)OC)NC(=O)OCc1ccccc1)C(=O)NC(CC(=O)OC)C(=O)NC(CCC(=O)OCC)C(=O)NC(CC(=O)OC)C(=O)NC(CCC(=O)OCC)C(=O)NC(CC(=O)OCC)C(=O)OCC` (configuration not stated) (Cbz-D(OMe)E(OEt)D(OMe)E(OEt)D(OMe)E(OEt)D(OEt)-OEt; configuration not given here): the TGI in assay [1], in assay [3], in assay [4], in assay [5] and in assay [7] was > 100 µM throughout.

As for `CC(C)(C)c1ccc(O)c(C(O)c2ccccn2)c1` (configuration not stated), the TGI in assay [1], in assay [2], in assay [3], in assay [5], in assay [6] and in assay [7] was > 100 µM throughout.

For the compound `Cc1cccc(C)c1NC(=S)N/C=C(\C#N)C(N)=O`, the TGI in assay [1], in assay [2], in assay [3], in assay [4], in assay [5] and in assay [7] was > 100 µM in each case. Further, the TGI in assay [8] was > 100 µM.

Take `CCOC(=O)c1ccc(-c2onc(C)c2Br)[nH]1`: the TGI in assay [1], in assay [2], in assay [3], in assay [4], in assay [6] and in assay [7] was > 100 µM throughout. The TGI in assay [8] was > 100 µM.

For `O=C(O)CSC1=NCCN1`, the TGI in assay [1], in assay [2], in assay [3], in assay [4], in assay [6] and in assay [7] was > 100 µM in each case. Besides, in assay [8], the TGI is > 100 µM.

Regarding `O=C(CSc1nc2ccccc2c(=O)n1-c1ccccc1)N=Nc1c(O)[nH]c2ccc(Br)cc12`, the TGI in assay [1] was 4.03 µM; in assay [2], > 100 µM; in assay [3] it was > 29.4 µM; in assay [4], > 20.6 µM; in assay [6] it was 11.5 µM; in assay [7] it was 9.69 µM. In assay [8], this compound registered a TGI of 6.87 µM.

As to `c1ccc(C/C(=N\Nc2nc3ccccc3[nH]2)c2ccccn2)cc1`, the TGI in assay [1] turned out to be 0.503 µM; in assay [2], 20 µM; in assay [3], 6.85 µM; in assay [4], 4.65 µM; in assay [5] it was 0.295 µM; in assay [7], 0.105 µM. The same compound had a TGI in assay [8] of 0.915 µM.

As for `COc1cc2c(c3nc4ccccc4nc13)-c1ccc(SC)c(=O)cc1[C@@H](NC(C)=O)CC2`, the TGI in assay [1] was > 100 µM; in assay [2], 0.0543 µM; in assay [3] it was > 100 µM; in assay [4], > 100 µM; in assay [6], > 100 µM; in assay [7], 0.151 µM. Further, the TGI in assay [8] is > 100 µM.

Take `CN1CCN(c2n[nH]c(=O)c3c2nnn3Cc2ccccc2)CC1`: the TGI in assay [1] was 37.1 µM; in assay [3], > 100 µM; in assay [4], > 100 µM; in assay [6], > 100 µM; in assay [8] it was > 100 µM.

With `CC(C)(C)OC(=O)C1C(=O)NC(=O)CC1C(OCc1ccccc1)C(OCc1ccccc1)C(COCc1ccccc1)OCc1ccccc1` (configuration not stated), the TGI in assay [1], in assay [2], in assay [3], in assay [4], in assay [5] and in assay [6] was > 100 µM in each case. The TGI in assay [8] is > 100 µM. The GI50 in assay [2] was > 100 µM and 16.2 µM; in assay [3] it was 66 µM and 9.83 µM; in assay [4] it was > 100 µM and 28.4 µM; in assay [6], 26 µM and > 7.5 µM.
